ChEMBL document CHEMBL3632501, “New SIRT1 activator from alkaline hydrolysate of total saponins in the stems-leaves of Panax ginseng” (Bioorg Med Chem Lett, 2015)
pIC50: −log10 of the molar value. Calls of active or inactive are those of the source. No cut-off for these calls is given here.

Assays:
HL-60 = assay: Cytotoxicity against human HL60 cells after 48 hrs by MTT assay; format: functional, cell-based; details: for pIC50: HL-60, 48 h
HepG2 = assay: Cytotoxicity against human HepG2 cells after 48 hrs by MTT assay; format: functional, cell-based; details: for pIC50: HepG2, 48 h
[1] = molecular target: T1, NAD-dependent protein deacetylase sirtuin-1 (Homo sapiens) (UniProt Q96EB6); assay: Activation of SIRT1 (unknown origin) after 45 mins by NAD/NADH enzyme-based fluorometric assay
T1 sequence (whole entry): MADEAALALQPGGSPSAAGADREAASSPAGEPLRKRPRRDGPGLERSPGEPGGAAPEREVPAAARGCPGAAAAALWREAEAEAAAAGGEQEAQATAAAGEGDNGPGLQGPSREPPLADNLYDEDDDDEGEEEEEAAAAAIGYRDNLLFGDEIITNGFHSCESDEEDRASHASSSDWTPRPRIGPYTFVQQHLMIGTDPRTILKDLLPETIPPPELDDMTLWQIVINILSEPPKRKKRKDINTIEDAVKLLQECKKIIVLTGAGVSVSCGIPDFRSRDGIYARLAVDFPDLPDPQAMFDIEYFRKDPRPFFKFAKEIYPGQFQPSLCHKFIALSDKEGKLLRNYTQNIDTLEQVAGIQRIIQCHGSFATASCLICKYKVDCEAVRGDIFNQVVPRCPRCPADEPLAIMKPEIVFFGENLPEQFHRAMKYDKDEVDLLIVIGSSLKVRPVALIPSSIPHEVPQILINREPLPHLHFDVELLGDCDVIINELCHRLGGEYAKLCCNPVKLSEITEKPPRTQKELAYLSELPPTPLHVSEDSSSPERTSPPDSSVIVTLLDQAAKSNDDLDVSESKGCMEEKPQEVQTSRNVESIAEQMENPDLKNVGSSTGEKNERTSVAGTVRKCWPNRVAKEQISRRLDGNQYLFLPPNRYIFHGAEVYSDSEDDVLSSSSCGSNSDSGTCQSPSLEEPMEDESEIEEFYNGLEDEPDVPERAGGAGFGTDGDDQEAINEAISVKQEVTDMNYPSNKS

Row | SMILES | pIC50 (HL-60) | pIC50 (HepG2) | Activity [1] | Activity (HL-60) | Activity (HepG2)
1 | CC(C)=CC/C=C(\C)[C@H]1CC[C@]2(C)[C@@H]1[C@H](O)C[C@@H]1[C@@]3(C)CC[C@H](O[C@@H]4O[C@H](CO)[C@@H](O)[C@H](O)[C@H]4O)C(C)(C)[C@@H]3[C@@H](O)C[C@]12C | 4.30 | 4.06 | Active | – | –
2 | CC(C)=CCC[C@](C)(O)[C@H]1CC[C@]2(C)[C@@H]1[C@H](O)C[C@@H]1[C@@]3(C)CC[C@H](O)C(C)(C)[C@@H]3CC[C@]12C | 4.81 | 4.34 | Active | – | –
3 | CC(C)=CCC[C@@](C)(O)[C@H]1CC[C@]2(C)[C@@H]1[C@H](O)C[C@@H]1[C@@]3(C)CC[C@H](O)C(C)(C)[C@@H]3[C@@H](O[C@@H]3O[C@H](CO)[C@@H](O)[C@H](O)[C@H]3O)C[C@]12C | < 3.70 | < 3.70 | inactive | – | –
4 | C=C(CCC=C(C)C)[C@H]1CC[C@]2(C)[C@@H]1[C@H](O)C[C@@H]1[C@@]3(C)CC[C@H](O)C(C)(C)[C@@H]3[C@@H](O)C[C@]12C | 4.74 | 4.38 | Active | – | –
5 | C=C(CCC=C(C)C)[C@H]1CC[C@]2(C)[C@@H]1[C@H](O)C[C@@H]1[C@@]3(C)CC[C@H](O[C@@H]4O[C@H](CO)[C@@H](O)[C@H](O)[C@H]4O[C@@H]4O[C@H](CO)[C@@H](O)[C@H](O)[C@H]4O)C(C)(C)[C@@H]3CC[C@]12C [GISENOSIDE RK1] | 4.24 | 4.10 | Active | – | –
6 | CC(C)=CCC[C@@](C)(O)[C@H]1CC[C@]2(C)[C@@H]1[C@H](O)C[C@@H]1[C@@]3(C)CC[C@H](O)C(C)(C)[C@@H]3[C@@H](O)C[C@]12C | 4.54 | 4.23 | Active | – | –
7 | CC(C)=CCC[C@](C)(O)[C@H]1CC[C@]2(C)[C@@H]1[C@H](O)C[C@@H]1[C@@]3(C)CC[C@H](O)C(C)(C)[C@@H]3[C@@H](O)C[C@]12C | 4.64 | 4.36 | Active | – | –
8 | CC(C)=CC/C=C(\C)[C@H]1CC[C@]2(C)[C@@H]1[C@H](O)C[C@@H]1[C@@]3(C)CC[C@H](O)C(C)(C)[C@@H]3[C@@H](O[C@@H]3O[C@H](CO)[C@@H](O)[C@H](O)[C@H]3O[C@@H]3O[C@@H](C)[C@H](O)[C@@H](O)[C@H]3O)C[C@]12C | 4.08 | 3.82 | inactive | – | –
9 | CC(C)=CCC[C@@](C)(O)[C@H]1CC[C@]2(C)[C@@H]1[C@H](O)C[C@@H]1[C@@]3(C)CC[C@H](O)C(C)(C)[C@@H]3CC[C@]12C | 4.63 | 4.16 | Active | – | –
10 | CC(C)=CC/C=C(\C)[C@H]1CC[C@]2(C)[C@@H]1[C@H](O)C[C@@H]1[C@@]3(C)CC[C@H](O)C(C)(C)[C@@H]3[C@@H](O)C[C@]12C | 4.99 | 4.61 | Active | Dose-dependent effect | Dose-dependent effect
11 | CCC1=C[C@@H]2CN(C1)Cc1c([nH]c3ccccc13)[C@@](C(=O)OC)(c1cc3c(cc1OC)N(C)[C@H]1[C@@](O)(C(=O)OC)[C@H](OC(C)=O)[C@]4(CC)C=CCN5CC[C@]31[C@@H]54)C2 [VINORELBINE] | 4.94 | 4.64 | – | – | –
12 | CC(=O)OC[C@H]1O[C@@H](O[C@H]2C[C@]3(C)[C@H](C[C@@H](O)[C@@H]4[C@@H]([C@@](C)(O)CCC=C(C)C)CC[C@]43C)[C@@]3(C)CC[C@H](O)C(C)(C)[C@H]23)[C@H](O)[C@@H](O)[C@@H]1O | 3.89 | 3.77 | Active | – | –
13 | C=C(C)[C@@H](O)C/C=C(\C)[C@H]1CC[C@]2(C)[C@@H]1[C@H](O)C[C@@H]1[C@@]3(C)CC[C@H](O[C@@H]4O[C@H](CO)[C@@H](O)[C@H](O)[C@H]4O)C(C)(C)[C@@H]3CC[C@]12C | 4.61 | 4.36 | Active | – | –
14 | CC(C)=CCC[C@](C)(O)[C@H]1CC[C@]2(C)[C@@H]1[C@H](O)C[C@@H]1[C@@]3(C)CC[C@H](O)C(C)(C)[C@@H]3[C@@H](O[C@@H]3O[C@H](CO)[C@@H](O)[C@H](O)[C@H]3O)C[C@]12C [GINSENOSIDE RH1] | < 3.70 | < 3.70 | Active | – | –
